In brackets after ≈: the same amount, converted by molar mass. Activity calls are given as the source filed them. The rule behind the calls is not given here.
Key:
Format in all cases: functional
Streptomyces griseus [1] = test: Antibacterial activity against Streptomyces griseus MTCC 4734 incubated for 24 hrs by serial dilution method
Staphylococcus aureus [2] = test: Antibacterial activity against Staphylococcus aureus MTCC 3381 incubated for 24 hrs by serial dilution method
Bacillus subtilis [3] = test: Antibacterial activity against Bacillus subtilis MTCC 10619 incubated for 24 hrs by serial dilution method
Escherichia coli [4] = test: Antibacterial activity against Escherichia coli MTCC 443 incubated for 24 hrs by serial dilution method
Fusarium oxysporum [5] = test: Antifungal activity against Fusarium oxysporum ATCC 62506 incubated for 24 hrs by serial dilution method
Aspergillus niger [6] = test: Antifungal activity against Aspergillus niger ATCC 9029 incubated for 24 hrs by serial dilution method
Talaromyces funiculosus [7] = test: Antifungal activity against Penicillium funiculosum ATCC 11797 incubated for 24 hrs by serial dilution method
Trichoderma reesei [8] = test: Antifungal activity against Trichoderma reesei ATCC 13631 incubated for 24 hrs by serial dilution method
Streptomyces griseus [9] = test: Antibacterial activity against Streptomyces griseus MTCC 4734 at 100 ug/ml incubated for 12 hrs by agar disc diffusion assay; conditions: for zone of inhibition at 100 µg/mL: MTCC 4734, 12 h, read-out: IZ
Staphylococcus aureus [10] = test: Antibacterial activity against Staphylococcus aureus MTCC 3381 at 100 ug/ml incubated for 12 hrs by agar disc diffusion assay; conditions: for zone of inhibition at 100 µg/mL: MTCC 3381, 12 h, read-out: IZ
Bacillus subtilis [11] = test: Antibacterial activity against Bacillus subtilis MTCC 10619 at 100 ug/ml incubated for 12 hrs by agar disc diffusion assay; conditions: for zone of inhibition at 100 µg/mL: MTCC 10619, 12 h, read-out: IZ
Escherichia coli [12] = test: Antibacterial activity against Escherichia coli MTCC 443 at 100 ug/ml incubated for 12 hrs by agar disc diffusion assay; conditions: for zone of inhibition at 100 µg/mL: MTCC 443, 12 h, read-out: IZ
Fusarium oxysporum [13] = test: Antifungal activity against Fusarium oxysporum ATCC 62506 at 100 ug/ml incubated for 72 hrs by agar disc diffusion assay; conditions: for zone of inhibition at 100 µg/mL: ATCC 62506, 72 h, read-out: IZ
Aspergillus niger [14] = test: Antifungal activity against Aspergillus niger ATCC 9029 at 100 ug/ml incubated for 72 hrs by agar disc diffusion assay; conditions: for zone of inhibition at 100 µg/mL: ATCC 9029, 72 h, read-out: IZ
Talaromyces funiculosus [15] = test: Antifungal activity against Penicillium funiculosum ATCC 11797 at 100 ug/ml incubated for 72 hrs by agar disc diffusion assay; conditions: for zone of inhibition at 100 µg/mL: ATCC 11797, 72 h, read-out: IZ
Trichoderma reesei [16] = test: Antifungal activity against Trichoderma reesei ATCC 13631 at 100 ug/ml incubated for 72 hrs by agar disc diffusion assay; conditions: for zone of inhibition at 100 µg/mL: ATCC 13631, 72 h, read-out: IZ

| SMILES | MIC (Streptomyces griseus [1]; MTCC 4734, 24 h) [µg/mL] | MIC (Staphylococcus aureus [2]; MTCC 3381, 24 h) [µg/mL] | MIC (Bacillus subtilis [3]) | MIC (Escherichia coli [4]; MTCC 443, 24 h) [µg/mL] | MIC (Fusarium oxysporum [5]) | MIC (Aspergillus niger [6]) | MIC (Talaromyces funiculosus [7]) | MIC (Trichoderma reesei [8]) | MIC (Fusarium oxysporum [5]; ATCC 62506, 24 h) [µg/mL] | MIC (Staphylococcus aureus [2]) | zone of inhibition at 100 µg/mL (Streptomyces griseus [9]) [mm] | zone of inhibition at 100 µg/mL (Staphylococcus aureus [10]) [mm] | inhibition zone (IZ) (Bacillus subtilis [11]) | zone of inhibition at 100 µg/mL (Escherichia coli [12]) [mm] | inhibition zone (IZ) (Fusarium oxysporum [13]) | inhibition zone (IZ) (Aspergillus niger [14]) | inhibition zone (IZ) (Talaromyces funiculosus [15]) | inhibition zone (IZ) (Trichoderma reesei [16]) | zone of inhibition at 100 µg/mL (Fusarium oxysporum [13]) [mm] | inhibition zone (IZ) (Staphylococcus aureus [10]) | also measured |
| --- | --- | --- | --- | --- | --- | --- | --- | --- | --- | --- | --- | --- | --- | --- | --- | --- | --- | --- | --- | --- | --- |
| Cc1ccc2c(c1)N/C(=C\C(=O)C1CC1)C(=O)O2 | 100 (≈ 411 µM) | 12.5 (≈ 51.4 µM) | inactive | 100 (≈ 411 µM) | inactive | inactive | inactive | inactive | – | – | 6 | 14 | inactive | 8 | inactive | inactive | inactive | inactive | – | – | – |
| CC(=O)N1CCN(c2ccc(OCC3COC(Cn4ccnc4)(c4ccc(Cl)cc4Cl)O3)cc2)CC1 (stereo not given) [KETOCONAZOLE] | – | – | – | – | – | – | – | – | 12.5 (≈ 23.5 µM) | – | – | – | – | – | – | – | – | – | 20 | – | MIC (Aspergillus niger [6]; ATCC 9029, 24 h): 12.5 µg/mL (≈ 23.5 µM); MIC (Talaromyces funiculosus [7]; ATCC 11797, 24 h): 25 µg/mL (≈ 47 µM); MIC (Trichoderma reesei [8]; ATCC 13631, 24 h): 25 µg/mL (≈ 47 µM); zone of inhibition at 100 µg/mL (Aspergillus niger [14]): 18 mm; zone of inhibition at 100 µg/mL (Talaromyces funiculosus [15]): 22 mm; zone of inhibition at 100 µg/mL (Trichoderma reesei [16]): 24 mm |
| O=C1Oc2ccccc2N/C1=C\C(=O)c1cccc2ccccc12 | – | – | inactive | – | inactive | – | inactive | – | – | inactive | – | – | inactive | – | inactive | – | inactive | – | – | inactive | MIC (Streptomyces griseus [1]): inactive; MIC (Escherichia coli [4]): inactive; MIC (Aspergillus niger [6]; ATCC 9029, 24 h): 100 µg/mL (≈ 317 µM); MIC (Trichoderma reesei [8]; ATCC 13631, 24 h): 100 µg/mL (≈ 317 µM); inhibition zone (IZ) (Streptomyces griseus [9]): inactive; inhibition zone (IZ) (Escherichia coli [12]): inactive; zone of inhibition at 100 µg/mL (Aspergillus niger [14]): 4 mm; zone of inhibition at 100 µg/mL (Trichoderma reesei [16]): 4 mm |
| Cc1ccc2c(c1)N/C(=C\C(=O)c1ccc(-c3ccccc3)cc1)C(=O)O2 | 12.5 (≈ 35.2 µM) | 12.5 (≈ 35.2 µM) | – | 25 (≈ 70.3 µM) | inactive | inactive | inactive | inactive | – | – | 18 | 11 | – | 20 | inactive | inactive | inactive | inactive | – | – | MIC (Bacillus subtilis [3]; MTCC 10619, 24 h): 25 µg/mL (≈ 70.3 µM); zone of inhibition at 100 µg/mL (Bacillus subtilis [11]): 12 mm |
| O=C1Oc2cc([N+](=O)[O-])ccc2N/C1=C\C(=O)c1ccc(-c2ccccc2)cc1 | 50 (≈ 129 µM) | – | – | 25 (≈ 64.7 µM) | – | inactive | inactive | inactive | 25 (≈ 64.7 µM) | inactive | 10 | – | – | 12 | – | inactive | inactive | inactive | 18 | inactive | MIC (Bacillus subtilis [3]; MTCC 10619, 24 h): 100 µg/mL (≈ 259 µM); zone of inhibition at 100 µg/mL (Bacillus subtilis [11]): 8 mm |
| O=C1Oc2ccc([N+](=O)[O-])cc2N/C1=C\C(=O)c1cccc2ccccc12 | 100 (≈ 278 µM) | – | – | 100 (≈ 278 µM) | – | inactive | inactive | inactive | 50 (≈ 139 µM) | inactive | 4 | – | – | 10 | – | inactive | inactive | inactive | 10 | inactive | MIC (Bacillus subtilis [3]; MTCC 10619, 24 h): 100 µg/mL (≈ 278 µM); zone of inhibition at 100 µg/mL (Bacillus subtilis [11]): 4 mm |

Now from value to compound, other results behind:

| MIC (Streptomyces griseus [1]; MTCC 4734, 24 h) [µg/mL] | MIC (Staphylococcus aureus [2]; MTCC 3381, 24 h) [µg/mL] | MIC (Bacillus subtilis [3]) | MIC (Escherichia coli [4]; MTCC 443, 24 h) [µg/mL] | MIC (Fusarium oxysporum [5]) | MIC (Aspergillus niger [6]) | MIC (Talaromyces funiculosus [7]) | MIC (Trichoderma reesei [8]) | MIC (Fusarium oxysporum [5]; ATCC 62506, 24 h) [µg/mL] | MIC (Staphylococcus aureus [2]) | SMILES | zone of inhibition at 100 µg/mL (Streptomyces griseus [9]) [mm] | zone of inhibition at 100 µg/mL (Staphylococcus aureus [10]) [mm] | inhibition zone (IZ) (Bacillus subtilis [11]) | zone of inhibition at 100 µg/mL (Escherichia coli [12]) [mm] | inhibition zone (IZ) (Fusarium oxysporum [13]) | inhibition zone (IZ) (Aspergillus niger [14]) | inhibition zone (IZ) (Talaromyces funiculosus [15]) | inhibition zone (IZ) (Trichoderma reesei [16]) | zone of inhibition at 100 µg/mL (Fusarium oxysporum [13]) [mm] | inhibition zone (IZ) (Staphylococcus aureus [10]) | also measured |
| --- | --- | --- | --- | --- | --- | --- | --- | --- | --- | --- | --- | --- | --- | --- | --- | --- | --- | --- | --- | --- | --- |
| – | 100 (≈ 436 µM) | inactive | 50 (≈ 218 µM) | – | inactive | inactive | – | 100 (≈ 436 µM) | – | O=C1Oc2ccccc2N/C1=C\C(=O)C1CC1 | – | 4 | inactive | 10 | – | inactive | inactive | – | 8 | – | MIC (Streptomyces griseus [1]): inactive; MIC (Trichoderma reesei [8]; ATCC 13631, 24 h): 100 µg/mL (≈ 436 µM); inhibition zone (IZ) (Streptomyces griseus [9]): inactive; zone of inhibition at 100 µg/mL (Trichoderma reesei [16]): 4 mm |
| – | – | inactive | – | inactive | – | – | inactive | – | inactive | O=C1Oc2ccc(Cl)cc2N/C1=C\C(=O)c1ccc(-c2ccccc2)cc1 | – | – | inactive | – | inactive | – | – | inactive | – | inactive | MIC (Streptomyces griseus [1]): inactive; MIC (Escherichia coli [4]): inactive; MIC (Aspergillus niger [6]; ATCC 9029, 24 h): 25 µg/mL (≈ 66.5 µM); MIC (Talaromyces funiculosus [7]; ATCC 11797, 24 h): 25 µg/mL (≈ 66.5 µM); inhibition zone (IZ) (Streptomyces griseus [9]): inactive; inhibition zone (IZ) (Escherichia coli [12]): inactive; zone of inhibition at 100 µg/mL (Aspergillus niger [14]): 8 mm; zone of inhibition at 100 µg/mL (Talaromyces funiculosus [15]): 12 mm |
